Where two headings read alike, the source gives them in different places.
Experiments:
[1] = target: human cytoplasmic dynein 2 (Homo sapiens (Human), UniProt Q8NCM8); test: microtubule gliding assay with GFP-dynein 2; type: biochemical; conditions: for Gliding velocity: dynein 2-driven microtubule gliding, test compounds at 20 pM (so in the source), 0.05 mg/mL casein, 2% DMSO, solvent control 126 ± 17; for Gliding velocity / IC50: 1 mM MgATP; for IC50: Table 1, dose-dependent analysis of dynein 2-driven microtubule gliding
Sequence of human cytoplasmic dynein 2 (Q8NCM8 1091-4307 limits assumed): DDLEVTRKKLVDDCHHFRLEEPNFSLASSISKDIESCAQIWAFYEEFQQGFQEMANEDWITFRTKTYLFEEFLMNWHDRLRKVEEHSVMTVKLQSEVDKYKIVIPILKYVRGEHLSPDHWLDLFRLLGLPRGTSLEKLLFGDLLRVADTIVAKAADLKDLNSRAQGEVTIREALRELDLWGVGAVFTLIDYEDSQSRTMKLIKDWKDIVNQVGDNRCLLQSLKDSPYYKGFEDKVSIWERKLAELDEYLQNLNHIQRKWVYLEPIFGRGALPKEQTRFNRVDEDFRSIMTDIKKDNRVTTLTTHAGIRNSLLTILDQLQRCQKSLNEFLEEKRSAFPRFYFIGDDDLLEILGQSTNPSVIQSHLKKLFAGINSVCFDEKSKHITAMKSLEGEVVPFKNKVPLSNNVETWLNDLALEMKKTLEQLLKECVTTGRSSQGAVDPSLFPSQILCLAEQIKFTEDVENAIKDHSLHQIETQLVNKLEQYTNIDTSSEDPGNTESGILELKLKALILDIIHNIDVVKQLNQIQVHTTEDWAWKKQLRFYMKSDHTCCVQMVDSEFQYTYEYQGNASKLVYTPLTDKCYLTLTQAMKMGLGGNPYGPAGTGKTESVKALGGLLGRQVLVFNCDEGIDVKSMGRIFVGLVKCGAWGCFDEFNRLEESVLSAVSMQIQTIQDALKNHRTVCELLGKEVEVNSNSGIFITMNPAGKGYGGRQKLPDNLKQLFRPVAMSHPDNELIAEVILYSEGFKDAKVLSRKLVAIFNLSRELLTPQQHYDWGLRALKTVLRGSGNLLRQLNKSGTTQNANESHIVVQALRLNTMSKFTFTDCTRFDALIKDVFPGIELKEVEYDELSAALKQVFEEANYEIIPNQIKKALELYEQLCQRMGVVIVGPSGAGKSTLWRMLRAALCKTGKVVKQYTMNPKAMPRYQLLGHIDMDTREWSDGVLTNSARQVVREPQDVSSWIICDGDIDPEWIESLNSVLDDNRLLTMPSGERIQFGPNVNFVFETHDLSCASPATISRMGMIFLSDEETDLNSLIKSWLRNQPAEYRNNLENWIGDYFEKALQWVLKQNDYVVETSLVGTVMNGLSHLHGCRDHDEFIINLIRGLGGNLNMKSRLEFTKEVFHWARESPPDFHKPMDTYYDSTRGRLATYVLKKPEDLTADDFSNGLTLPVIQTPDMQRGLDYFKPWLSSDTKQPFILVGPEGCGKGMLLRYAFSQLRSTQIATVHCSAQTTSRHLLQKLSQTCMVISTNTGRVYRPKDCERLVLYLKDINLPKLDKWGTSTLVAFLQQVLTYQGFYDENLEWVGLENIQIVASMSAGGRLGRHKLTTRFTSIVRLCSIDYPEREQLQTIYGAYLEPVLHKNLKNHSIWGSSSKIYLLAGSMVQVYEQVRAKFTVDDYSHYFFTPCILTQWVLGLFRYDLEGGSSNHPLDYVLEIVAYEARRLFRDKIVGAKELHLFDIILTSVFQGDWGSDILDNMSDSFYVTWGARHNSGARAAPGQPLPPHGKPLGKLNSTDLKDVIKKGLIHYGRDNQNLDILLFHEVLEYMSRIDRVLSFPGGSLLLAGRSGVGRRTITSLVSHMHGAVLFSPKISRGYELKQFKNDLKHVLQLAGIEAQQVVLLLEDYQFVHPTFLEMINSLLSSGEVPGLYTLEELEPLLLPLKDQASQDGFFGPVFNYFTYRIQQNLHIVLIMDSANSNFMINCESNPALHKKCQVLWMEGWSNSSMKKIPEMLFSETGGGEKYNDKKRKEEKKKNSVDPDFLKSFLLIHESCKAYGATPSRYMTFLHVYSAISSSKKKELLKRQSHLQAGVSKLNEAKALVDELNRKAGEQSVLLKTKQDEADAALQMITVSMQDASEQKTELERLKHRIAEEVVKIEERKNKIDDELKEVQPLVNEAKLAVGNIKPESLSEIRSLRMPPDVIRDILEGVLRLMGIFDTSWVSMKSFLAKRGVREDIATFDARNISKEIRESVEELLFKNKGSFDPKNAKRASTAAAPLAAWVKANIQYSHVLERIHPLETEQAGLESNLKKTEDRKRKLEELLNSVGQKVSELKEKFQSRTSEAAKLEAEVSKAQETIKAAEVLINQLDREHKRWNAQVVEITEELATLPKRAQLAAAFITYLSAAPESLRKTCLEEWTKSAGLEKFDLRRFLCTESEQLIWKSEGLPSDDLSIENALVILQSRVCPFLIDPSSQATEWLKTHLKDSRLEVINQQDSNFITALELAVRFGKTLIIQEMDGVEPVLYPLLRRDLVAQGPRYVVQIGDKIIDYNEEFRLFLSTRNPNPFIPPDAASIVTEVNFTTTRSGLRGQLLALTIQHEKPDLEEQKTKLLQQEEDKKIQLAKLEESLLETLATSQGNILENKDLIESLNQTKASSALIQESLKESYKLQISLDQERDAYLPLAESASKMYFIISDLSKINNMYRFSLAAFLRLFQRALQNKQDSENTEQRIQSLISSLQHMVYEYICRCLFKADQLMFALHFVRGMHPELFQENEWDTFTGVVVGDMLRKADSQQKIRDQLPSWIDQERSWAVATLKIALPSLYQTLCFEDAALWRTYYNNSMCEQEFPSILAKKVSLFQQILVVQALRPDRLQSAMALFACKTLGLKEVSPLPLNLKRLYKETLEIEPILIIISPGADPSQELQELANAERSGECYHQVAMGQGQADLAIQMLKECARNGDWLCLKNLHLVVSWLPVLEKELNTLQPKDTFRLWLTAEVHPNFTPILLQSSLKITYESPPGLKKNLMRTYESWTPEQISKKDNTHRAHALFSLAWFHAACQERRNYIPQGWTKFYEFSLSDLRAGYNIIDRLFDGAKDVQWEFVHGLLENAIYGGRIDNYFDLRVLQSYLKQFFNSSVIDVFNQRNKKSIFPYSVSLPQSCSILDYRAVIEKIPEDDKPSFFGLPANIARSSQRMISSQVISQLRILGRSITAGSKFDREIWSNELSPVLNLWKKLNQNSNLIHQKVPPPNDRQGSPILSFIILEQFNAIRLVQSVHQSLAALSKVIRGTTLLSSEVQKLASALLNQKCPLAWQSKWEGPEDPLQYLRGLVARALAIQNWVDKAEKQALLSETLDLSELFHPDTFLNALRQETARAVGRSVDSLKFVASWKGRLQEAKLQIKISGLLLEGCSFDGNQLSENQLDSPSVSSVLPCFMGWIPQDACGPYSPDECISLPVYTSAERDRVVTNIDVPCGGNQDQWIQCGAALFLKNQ
Procedure: Compounds were tested employing a microtubule gliding assay, a standard biochemical assay for motor proteins. […] We purified an N-terminally GFP-tagged motor-domain construct of dynein 2 using an insect cell expression system [Schmidt et al., Nature. 2015; 518(7539):435-8]. The GFP tag in this construct allowed immobilization on passivated glass coverslips used in microtubule gliding assays. GFP-dynein 2, in the presence of ATP (1 mM), moved microtubules with a velocity of 128±14 nm/s. The mean velocity of dynein 2-driven microtubule gliding in the presence of control solvent (2% DMSO) and test compounds at 20 pM were compared. All motility assays were run at 1 mM MgATP, 0.05 mg/mL casein, and 2% DMSO. Representative examples of compounds of the invention provided the results shown as “Gliding velocity in nm/s” in Table 1. For some compounds, dose-dependent analyses were performed, and the results are shown as “IC50 in μM” in Table 1.
Microtubule surface gliding assay. Cytoplasmic dynein was purified from bovine brains as described by Bingham et al. [Methods Enzymol. 298, 171 (1998)]. K560, a 560-amino acid N-terminal fragment of human conventional kinesin (kinesin-1) with a C-terminal His-tag, was expressed in bacteria and purifed as described by Woehlke et al., [Cell 90, 207 (1997)]. Motility assays were performed on a Zeiss Axiovert 200M wide-field microscope equipped with a Zeiss 100×/1.45 NA α-Plan-Fluar objective. Data were captured with an EM-CCD camera (iXon DU-897, Andor Technology) with a 0.3-second exposure time and frame rate of 0.5 second^−1. Microtubule gliding assays were performed as described by Kapoor and Mitchison [Proc. Natl. Acad. Sci. U.S.A 96, 9106 (1999)] with some modifications. An approximately 6-μL flow chamber was filled with motor protein (100 μg/mL dynein or 50 μg/mL K560) in motor dilution buffer (80 mM Pipes, 1 mM EGTA, 2 mM MgCl2, 2 mM DTT, 50 μM ATP, pH 6.8 with KOH). After a 2-minute incubation, excess protein was washed out with 20 μL of PEM80 buffer (80 mM Pipes, 1 mM EGTA, 2 mM MgCl2, pH 6.8 with KOH) and the surface was blocked against non-specific microtubule binding by filling the chamber with blocking protein (0.5 mg/mL α-casein for dynein experiments and 1 mg/mL BSA for K560 experiments) in motor dilution buffer. After 2 minutes the chamber was perfused with 18 μL of reaction mix (PEM80, 40 mM KC 1, blocking protein [1 mg/mL α-casein for dynein experiments; 1 mg/mL BSA for K560 experiments], 2 mM MgATP, 20 μM taxol, 0.1 μM rhodamine-labeled microtubules, oxygen depletion system [4 mM DTT, 2 mM glucose, 40 μg/mL glucose oxidase, 35 μg/mL catalase], 2.5% DMSO, and test compounds as appropriate). The flow chamber was then sealed with valap. After allowing the microtubules to bind to the surface for 5 minutes, the gliding microtubules were visualized by time-lapse fluorescence microscopy. Velocities were measured by kymography using Metamorph software (Molecular Devices), and the velocity for each microtubule was determined from the total distance during the time observed.
For washout experiments, the chamber was left unsealed after the initial reaction mix containing inhibitor was added. Microtubules were allowed to bind to the surface for 5 minutes, and then a time-lapse movie was acquired. The inhibitor was then washed out of the chamber by flowing in 20 μL of fresh reaction mix (PEM80, 40 mM KCl, 1 mg/mL α-casein, 2 mM MgATP, 20 μM taxol, oxygen depletion system, and 2.5% DMSO) without additional microtubules or inhibitor. The chamber was sealed, and additional time-lapse movies were acquired.

[2] = tested on: Hedgehog pathway activity; test: Shh-Light luciferase reporter assay of Hedgehog pathway activity (Shh-Light2 cells, SAG-stimulated); type: cell-based; conditions: for activity at 20 µM: 20 μM compound, read-out: SHH-light % residual @ 20 μM; for activity at 2 µM: 2 μM compound, read-out: SHH-light % residual @ 2 μM
Procedure: To examine the inhibition of dynein 2 in cell-based assays, an established luciferase reporter-based cellular assay of Hedgehog pathway activity was employed [Taipale et al., Nature. 2000; 406(6799): 1005-9]. Signaling in this pathway depends on the function of dynein 2. In this setting, expression of luciferase driven by Hedgehog pathway activity was inhibited by compound 5 with an IC50 value of 0.9±0.5 μM. […] The potencies of these compounds in this cell-based assay match the rank-order of dynein 2 inhibition in vitro. In these assays, Hedgehog pathway activity was stimulated using the Synthetic Agonist of Smoothened (SAG). This compound competes with many Hedgehog pathway inhibitors for binding to Smoothened, a key node in the signaling pathway.
SHH-Light Assay (Steinman et al. eLife 2017; 6:e25174.)
NIH-3T3 cells stably expressing a luciferase reporter downstream of a Gli binding site (Shh-Light2 cells, RRID: CVCL_2721) were maintained in DMEM with 10% bovine calf serum (BCS). Cells were seeded at a density of 30,000 cells/well in 96-well tissue culture-treated plates (Corning, cat #353072) in 100 μL in DMEM+10% BCS, and incubated for 48 hr (Taipale et al., 2000). Wells were washed briefly with PBS. Next […] of low serum media (DMEM+0.5% BCS) containing smoothened agonist (SAG, 500 nM), and either solvent control (0.2% DMSO) or test compound (serial three-fold dilutions of each inhibitor starting from 20 μM) were added to the wells. After 28-32 hr of inhibitor treatment, cells were washed with 50 μL PBS and lysed for >30 min in 30 μL Passive Lysis Buffer (Promega Dual Luciferase kit, cat E1910). 5 uL of each lysate was transferred to white, solid-bottom 96-well plates (Greiner, cat #655075), followed by rapid addition (within 30 s) of 30 μL of Luciferase Assay Reagent using a multichannel pipette. Luminescence for each condition was read using a Synergy Neo plate reader (5 s integration time per well). Cell line identity was confirmed by measurement of the degree of response to Hedgehog pathway stimulation by the synthetic agonist SAG and using previously published values from our groups and others as references (Firestone et al., 2012; Hyman et al., 2009).

[3] = tested on: dynein 1 construct with a mutation in the AAA3 domain (Walker A residue); test: ATPase activity of dynein 1 construct with AAA3 mutation; type: biochemical
Excerpt: ATPase activity at AAA1 is linked to individual steps of the motor, while the AAA3 site plays a regulatory role. Two lines of evidence indicate that compounds of the invention target the AAA1 site specifically. First, compound 5 inhibits the activity of a dynein 1 construct with a mutation in the AAA3 domain (Walker A residue). In this construct, the ATPase activity is expected to be mainly due to the AAA1 site. Second, the potency of inhibition of the AAA3 mutant is similar to that of the microtubule-stimulated ATPase rate. Sequence comparisons indicate that the AAA1 sites in dynein 1 and 2 are highly conserved, while the other AAA sites are less conserved. In fact, the residues within 4 Å of the bound nucleotide in AAA1 are identical between dynein 1 and 2.

[4] = target: human dynein 1 (Homo sapiens (Human), UniProt Q14204); test: microtubule gliding assay with GFP-dynein 1; type: biochemical; conditions: washout
Excerpt: To examine the inhibition of dynein 1 by compound 5 in vitro we generated recombinant human protein. We expressed and purified a GFP-tagged human dynein 1 (AA 1320-'16'16) construct similar to the one we used for GFP dynein 2. […] GFP-dynein 1 moves microtubules at 510±60 nm/s, a velocity expected based on studies of other mammalian dynein 1 homologs (n=7).
Microtubule surface gliding assay. Cytoplasmic dynein was purified from bovine brains as described by Bingham et al. [Methods Enzymol. 298, 171 (1998)]. K560, a 560-amino acid N-terminal fragment of human conventional kinesin (kinesin-1) with a C-terminal His-tag, was expressed in bacteria and purifed as described by Woehlke et al., [Cell 90, 207 (1997)]. Motility assays were performed on a Zeiss Axiovert 200M wide-field microscope equipped with a Zeiss 100×/1.45 NA α-Plan-Fluar objective. Data were captured with an EM-CCD camera (iXon DU-897, Andor Technology) with a 0.3-second exposure time and frame rate of 0.5 second^−1. […] After allowing the microtubules to bind to the surface for 5 minutes, the gliding microtubules were visualized by time-lapse fluorescence microscopy. Velocities were measured by kymography using Metamorph software (Molecular Devices), and the velocity for each microtubule was determined from the total distance during the time observed. […]

[5] = tested on: medulloblastoma; conditions: human patient; cited from earlier work
[6] = tested on: basal cell carcinoma; conditions: 33 human patients; cited from earlier work
[7] = SAG 500 nM, read-out: IC50, luciferase expression driven by Hedgehog pathway activity
[8] = Table 2, SAG 500 nM, 28-32 hr treatment, read-out: Shh-light IC50

Structure (SMILES) | Gliding velocity [1] | activity at 20 µM ([2]; SAG 500 nM) | activity at 2 µM ([2]; SAG 500 nM) | IC50 [1] | IC50 [2, 8] | other results
O=c1[nH]c2cc(-c3ccc(Cl)cc3Cl)nn2c2ccccc12 [Example 1, 2-(2,4-dichlorophenyl)-4H-pyrazolo[1,5-a]quinazolin-5-one] | 83 ± 10 nm/s | – | – | – | – | –
N#Cc1c(-c2ccc(Cl)cc2Cl)nn2c1[nH]c(=O)c1ccccc12 [Example 2, 2-(2,4-dichlorophenyl)-5-oxo-4H-pyrazolo[1,5-a]quinazoline-3-carbonitrile] | 83 ± 10 nm/s | 19.1% | – | – | – | IC50 [2, 7]: 5200 ± 5000 nM
N#Cc1c(C2(c3ccc(Cl)cc3)CC2)nn2c1[nH]c(=O)c1ccccc12 [Example 3, 2-[1-(4-chlorophenyl)cyclopropyl]-5-oxo-4H-pyrazolo[1,5-a]quinazoline-3-carbonitrile] | 58 ± 14 nm/s | – | – | – | – | –
N#Cc1c(C2(c3ccc(Cl)cc3)CC2)nn2c1[nH]c(=O)c1cc(C(F)(F)F)ccc12 [Example 4, 2-(1-(4-chlorophenyl)cyclopropyl)-5-oxo-7-(trifluoromethyl)-4,5-dihydropyrazolo[1,5-a]quinazoline-3-carbonitrile] | 6 ± 2 nm/s | -4.4% | 41.8% | 3300 ± 200 nM | – | –
N#Cc1c(C2(c3ccc(Cl)cc3)CC2)nn2c1[nH]c(=O)c1cc(I)ccc12 [Example 5, 2-[1-(4-chlorophenyl)cyclopropyl]-7-iodo-5-oxo-4H-pyrazolo[1,5-a]quinazoline-3-carbonitrile] | 6 ± 2 nm/s | -5.2% | 24.8% | 2600 ± 1300 nM | 1450 nM | inhibition of ATPase activity of AAA3 mutant dynein 1 [3]: inhibits; reversibility of inhibition of dynein 1-dependent microtubule gliding [4]: reversed following washout; IC50 [2, 7]: 900 ± 500 nM; reversibility of inhibition of dynein 2-dependent motility ([1]; washout): reversed following washout
N#Cc1c(C2(c3ccc(Cl)cc3)CC2)nn2c(=O)c3cc(Br)ccc3[nH]c12 [Example 12, 7-Bromo-2-[1-(4-chlorophenyl)cyclopropyl]-9-oxo-4H-pyrazolo[5,1-b]quinazoline-3-carbonitrile] | – | -1.9% | -3.1% | 290 nM | 290 nM | –
N#Cc1c(C2CCC(c3ccc(Cl)cc3)CC2)nn2c(=O)c3ccccc3[nH]c12 (stereo not drawn) [Example 27, 2-[4-(4-Chlorophenyl)cyclohexyl]-9-oxo-4H-pyrazolo[5,1-b]quinazoline-3-carbonitrile] | – | -1.5% | 27.3% | 620 nM | 600 nM | –
N#Cc1c(CCCOc2ccc(Cl)cc2)nn2c(=O)c3ccccc3[nH]c12 [Example 29, 2-[3-(4-Chlorophenoxy)propyl]-9-oxo-4H-pyrazolo[5,1-b]quinazoline-3-carbonitrile] | – | 3.8% | 33.5% | 730 nM | 680 nM | –
N#Cc1c(C2(c3ccc(Cl)cc3)CC2)nn2c(=O)c3ccccc3[nH]c12 [Example 31, 2-[1-(4-Chlorophenyl)cyclopropyl]-9-oxo-4H-pyrazolo[5,1-b]quinazoline-3-carbonitrile] | – | -1.6% | 30.4% | 710 nM | 660 nM | –
CS(=O)(=O)c1ccc(C(=O)Nc2ccc(Cl)c(-c3ccccn3)c2)c(Cl)c1 [GDC-0449] | – | – | – | – | – | clinical response, medulloblastoma [5]: regression of medulloblastoma; clinical response, basal cell carcinoma [6]: clinically significant response
